Measurements reported in patent EP1020531A2, “Use of spore adhesion assays in fungicide screening” (priority 1999, dated 2000).

Legend:
Candida albicans = conditions: dacron fibers; Vuddhakel et al. (1988); cited from earlier work
Puccinia recondita = assay: Germination-associated spore adhesion assay in microtiter plates (sulforhodamine B); type: cell-based; conditions: for EC50 (ppm): inhibition of adhesion, 0.05% Tween 20, 19°C, 4 hours; for inhibition of germination-associated adhesion: statement in words
[1] = test system: Pyricularia oryzae appressoria; conditions: Inoue et al., Pesticide Science 19, 145-152 (1987); cited from earlier work
Magnaporthe grisea = type: cell-based; conditions: for EC50 (ppm): inhibition of adhesion, YEG, 25°C, 6 hours; for inhibition of germination-associated adhesion: statement in words

Row | Molecule | EC50 (ppm) (Puccinia recondita) | inhibition of germination-associated adhesion (Puccinia recondita) | EC50 (ppm) (Magnaporthe grisea) | inhibition of germination-associated adhesion (Magnaporthe grisea) | also measured
1 | CCC(C)(C)c1ccc(CC(C)CN2C[C@@H](C)O[C@@H](C)C2)cc1 (stereo partly shown) [amorolfine] |  |  |  |  | Candida adherence (Candida albicans): inhibit Candida adherence
2 | CC1=C(C(=O)Nc2ccccc2)SCCO1 [carboxin] | 0.081 ppm | inhibited germination-associated adhesion |  |  | 
3 | Cn1c(=O)sc2cccc(Cl)c21 [chlobenthiazone] |  |  |  |  | adhesion of Pyricularia oryzae appressoria to barley leaves [1]: inhibited adhesion
4 | N#CC(CCc1ccc(Cl)cc1)(Cn1cncn1)c1ccccc1 (stereo not shown) [fenbuconazole] | 9.2 ppm | little or no activity |  |  | 
5 | CCCCC(C#N)(Cn1cncn1)c1ccc(Cl)cc1 (stereo not shown) [myclobutanil] | >10 ppm | little or no activity |  |  | 
6 | CCCN(CCOc1c(Cl)cc(Cl)cc1Cl)C(=O)n1ccnc1 [prochloraz] |  |  | >10.0 ppm | little or no activity | 
7 | Cc1nc(C(F)(F)F)c(C(=O)Nc2c(Br)cc(OC(F)(F)F)cc2Br)s1 [thifluzamide] | 0.043 ppm | inhibited germination-associated adhesion |  |  | 
8 | COC(=O)NC(=S)Nc1ccccc1NC(=S)NC(=O)OC [thiophanate-methyl] |  |  | 7.5 ppm | little or no activity | 
9 | Cc1cccc2sc3nncn3c12 [tricyclazole] |  |  |  |  | adhesion of Pyricularia oryzae appressoria to barley leaves [1]: inhibited adhesion
10 | mancozeb | 0.56 ppm | inhibited germination-associated adhesion | 0.115 ppm | potent inhibitors of germination-associated adhesion | 
